For assay [1], the target named is T1, BRD4 bromo domain 2 [BRD4(2)] (Homo sapiens, UniProt O60885).
T1 construct: N-terminally His6-tagged BRD4(2) (amino acids 357-445); made in house; host or cells: E. coli
Kind of assay: BRD4/acetylated peptide H4 binding assay (TR-FRET), BRD4 bromo domain 2. Conditions: inhibition of BRD4(2)/Ac-H4 peptide interaction. From the text: (§1) Protein-Protein Interaction Assay: BRD4/Acetylated Peptide H4 Binding Assay
To assess the BRD4(2) binding strength of the substances described in this application, the ability thereof to inhibit the interaction between BRD4(2) and acetylated histone H4 in a dose-dependent manner was quantified.
(§2) For this purpose, a time-resolved fluorescence resonance energy transfer (TR-FRET) assay was used, which measures the binding between N-terminally His6-tagged BRD4(2) (amino acids 357-445) and a synthetic acetylated histone H4 (Ac-H4) peptide with sequence SGRGK(Ac)GGK(Ac)GLGK(Ac)GGAK(Ac)RHRKVLRDNGSGSK-biotin. The recombinant BRD4(2) protein produced in-house according to Filippakopoulos et al., Nature, 2010, 468:1119-1123 and Cell, 2012, 149:214-231, was expressed in E. coli and purified by means of (Ni-NTA) affinity and (Sephadex G-75) size exclusion chromatography. The Ac-H4 peptide can be purchased, for example, from Biosyntan (Berlin, Germany).
(§3) In the assay, typically 11 different concentrations of each substance (0.1 nM, 0.33 nM, 1.1 nM, 3.8 nM, 13 nM, 44 nM, 0.15 μM, 0.51 μM, 1.7 μM, 5.9 μM and 20 μM) were analysed as duplicates on the same microtitre plate. For this purpose, 100-fold concentrated solutions in DMSO were prepared by serial dilutions (1:3.4) of a 2 mM stock solution into a clear, 384-well microtitre plate (Greiner Bio-One, Frickenhausen, Germany). From this, 50 nl were transferred into a black test plate (Greiner Bio-One, Frickenhausen, Germany). The test was started by the addition of 2 μl of a 2.5-fold concentrated BRD4(2) solution (final concentration typically 100 nM in the 5 μl of reaction volume) in aqueous assay buffer [50 mM HEPES pH 7.5, 50 mM sodium chloride (NaCl); 50 mM potassium fluoride (KF); 0.25 mM CHAPS and 0.05% serum albumin (BSA)] to the substances in the test plate. This was followed by a 10-minute incubation step at 22° C. for the pre-equilibration of putative complexes between BRD4(2) and the substances. Subsequently, 3 μl of a 1.67-fold concentrated solution (in assay buffer) consisting of Ac-H4 peptide (83.5 nM) and TR-FRET detection reagents [83.5 nM anti-6His-XL665 (Cisbio Bioassays, Codolet, France) and 12.52 nM streptavidin-Eu), (Perkin Elmer, #W1024)] in assay buffer were added.
(§4) The mixture was then incubated in the dark at 22° C. for one hour and then at 4° C. for at least 3 hours and for no longer than overnight. The formation of BRD4(2)/Ac-H4 complexes was determined by the measurement of the resonance energy transfer from the streptavidin-Eu chelate to the anti-6His-XL665 antibody present in the reaction. For this purpose, the fluorescence emission was measured at 620 nm and 665 nm after excitation at 330-350 nm in a TR-FRET measuring instrument, for example a Rubystar or Pherastar (both from BMG Lab Technologies, Offenburg, Germany) or a Viewlux (Perkin-Elmer). The ratio of the emissions at 665 nm and at 622 nm was taken as an indicator of the amount of BRD4(2)/Ac-H4 complexes formed.
The data (ratios) obtained were normalized, with 0% inhibition corresponding to the mean from the measurements for a set of controls (typically 32 data points) in which all the reagents were present. In these, in place of test substances, 50 nl of DMSO (100%) were used. Inhibition of 100% corresponded to the mean from the measurements for a set of controls (typically 32 data points) in which all the reagents except BRD4(2) were present. The IC50 was determined by regression analysis based on a 4-parameter equation (minimum, maximum, IC50, Hill; Y=max+(min−max)/(1+(X/IC50)Hill)).

For assay [2], the target named is T2, BRD4 bromo domain 1 [BRD4(1)] (Homo sapiens, UniProt O60885).
T2 construct: N-terminally His6-tagged BRD4(1) (amino acids 67-152); made in house; host or cells: E. coli
Nature of the assay: BRD4/acetylated peptide H4 binding assay (TR-FRET), BRD4 bromo domain 1. Conditions: inhibition of BRD4(1)/Ac-H4 peptide interaction.
Text: as §1
To assess the BRD4(1) binding strength of the substances described in this application, the ability thereof to inhibit the interaction between BRD4(1) and acetylated histone H4 in a dose-dependent manner was quantified.
as §2, with “BRD4(1)” for “BRD4(2)”, “67-152)” for “357-445)”, “GRGK(Ac)GGK(Ac)GLGK(Ac)GGAK(Ac)RHGSGSK-biotin.” for “SGRGK(Ac)GGK(Ac)GLGK(Ac)GGAK(Ac)RHRKVLRDNGSGSK-biotin.”
as §3, with “concentrated BRD4(1)” for “concentrated BRD4(2)”, “typically 10” for “typically 100”, “chloride (NaCl),” for “chloride (NaCl); 50 mM potassium fluoride (KF);”, “between BRD4(1)” for “between BRD4(2)”, “substances.” for “substances. Subsequently, 3 μl of a 1.67-fold concentrated solution (in assay buffer) consisting of Ac-H4 peptide (83.5 nM) and TR-FRET detection reagents [83.5 nM anti-6His-XL665 (Cisbio Bioassays, Codolet, France) and 12.52 nM streptavidin-Eu), (Perkin Elmer, #W1024)] in assay buffer were added.”
as §4, with “BRD4(1)/Ac-H4” for “BRD4(2)/Ac-H4”, “cryptate” for “chelate”
The data (ratios) obtained were normalized, with 0% inhibition corresponding to the mean from the measurements for a set of controls (typically 32 data points) in which all the reagents were present. In these, in place of test substances, 50 nl of DMSO (100%) were used. Inhibition of 100% corresponded to the mean from the measurements for a set of controls (typically 32 data points) in which all the reagents except BRD4(1) were present. The IC50 was determined by regression analysis based on a 4-parameter equation (minimum, maximum, IC50, Hill; Y=max+(min−max)/(1+(X/IC50)Hill)).
(In general: TR-FRET usually uses a lanthanide donor and a delayed reading to cut background.)

Each structure is given as a SMILES string. pIC50: −log10 of the molar value.

We go through 11 compounds from patent publication US20160176867A1, “MODIFIED BET-PROTEIN-INHIBITING DIHYDROQUINOXALINONES AND DIHYDROPYRIDOPYRAZINONES” (BAYER PHARMA AKTIENGESELLSCHAFT, priority 2013, published 2016).

`COc1ccc(CN2c3cc(Nc4cccc(S(=O)(=O)N5CCOCC5)c4)ccc3N(C)C(=O)[C@H]2C)cc1` [Example 11, (3R)-4-(4-Methoxybenzyl)-1,3-dimethyl-6-{[3-(morpholin-4-ylsulphonyl)phenyl]amino}-3,4-dihydroquinoxalin-2(1H)-one]: the pIC50 (as a rule, the IC50 on a negative log10 scale, so that one unit is a factor of ten) was 7.32 in assay [1] and 6.68 in assay [2].

`COc1ccc(C(=O)N2CCN(C)CC2)cc1Nc1ccc2c(n1)N(C1CCOCC1)[C@H](C)C(=O)N2C` [Example 17, (3R)-6-({2-Methoxy-5-[(4-methylpiperazin-1-yl)carbonyl]phenyl}amino)-1,3-dimethyl-4-(tetrahydro-2H-pyran-4-yl)-3,4-dihydropyrido[2,3-b]pyrazin-2(1H)-one]: the negative logarithm of the IC50 (pIC50) in assay [1] is 7.22; in assay [2] it was 6.89.

Regarding `COc1ccc(C(=O)NCCN(C)C)cc1Nc1ccc2c(n1)N(C1CCOCC1)[C@H](C)C(=O)N2C` [Example 19, N-2-(Dimethylamino)ethyl-3-{[(3R)-1,3-dimethyl-2-oxo-4-(tetrahydro-2H-pyran-4-yl)-1,2,3,4-tetrahydropyrido[2,3-b]pyrazin-6-yl]amino}-4-methoxybenzamide], the pIC50 was 6.88 in assay [1] and 6.63 in assay [2].

For `C[C@@H]1C(=O)N(C)c2ccc(Nc3cccc(C(=O)N[C@H]4CC[C@H](N5CCN(CC6CC6)CC5)CC4)c3)cc2N1Cc1c(F)cccc1F` [Example 22, N-{trans-4-[4-(Cyclopropylmethyl)piperazin-1-yl]cyclohexyl}-3-{[4-(2,6-difluorobenzyl)-1,3-dimethyl-2-oxo-1,2,3,4-tetrahydroquinoxalin-6-yl]amino}benzamide], the pIC50 is 6.80 in assay [1] and 6.15 in assay [2].

In the case of `CCN(CC)S(=O)(=O)c1cccc(Nc2ccc3c(n2)N(C2CCOCC2)[C@H](C)C(=O)N3C)c1` [Example 32, 3-{[(3R)-1,3-dimethyl-2-oxo-4-(tetrahydro-2H-pyran-4-yl)-1,2,3,4-tetrahydropyrido[2,3-b]pyrazin-6-yl]amino}-N,N-diethylbenzene-sulphonamide], the negative-log IC50 (pIC50) in assay [1] is 7.41; in assay [2] it was 7.66.

With `C[C@H]1C(=O)N(C)c2ccc(Nc3cccc(S(=O)(=O)N[C@H]4CC[C@H](N5CCN(CC6CC6)CC5)CC4)c3)nc2N1C1CCOCC1` [Example 36, N-{trans-4-[4-(cyclopropylmethyl)-piperazin-1-yl]cyclohexyl}-3-{[(3S)-1,3-dimethyl-2-oxo-4-(tetrahydro-2H-pyran-4-yl)-1,2,3,4-tetrahydropyrido[2,3-b]pyrazin-6-yl]amino}-benzenesulphonamide], the pIC50 is 5.37 in assay [1] and 6.14 in assay [2].

For `C[C@@H]1C(=O)N(C)c2ccc(Nc3cccc(S(=O)(=O)N4CC5(CCC5)C4)c3)nc2N1C1CCN(C(=O)OC(C)(C)C)CC1` [Example 60, tert-butyl 4-[(3R)-6-{[3-(2-azaspiro[3.3]hept-2-ylsulphonyl)phenyl]-amino}-1,3-dimethyl-2-oxo-2,3-dihydropyrido[2,3-b]pyrazin-4(1H)-yl]piperidine-1-carboxylate], the pIC50 in assay [1] is 6.58; in assay [2], 6.70.

Turning to `C[C@@H]1C(=O)N(C)c2ccc(Nc3cccc(S(=O)(=O)N(C)C)c3)nc2N1C1CCN(C(=O)OC(C)(C)C)CC1` [Example 61, tert-butyl 4-[(3R)-6-{[3-(dimethylsulphamoyl)-phenyl]amino}-1,3-dimethyl-2-oxo-2,3-dihydropyrido[2,3-b]pyrazin-4(1H)-yl]piperidine-1-carboxylate], the pIC50 was 6.78 in assay [1] and 6.68 in assay [2].

Consider `C[C@@H]1C(=O)N(C)c2ccc(Nc3cccc(S(=O)(=O)N4CCN(C)CC4)c3)nc2N1C1CCN(C(=O)OC(C)(C)C)CC1` [Example 62, tert-butyl 4-[(3R)-1,3-dimethyl-6-({3-[(4-methylpiperazin-1-yl)sulphonyl]phenyl}-amino)-2-oxo-2,3-dihydropyrido[2,3-b]pyrazin-4(1H)-yl]piperidine-1-carboxylate], for which the pIC50 in assay [1] is 6.88; in assay [2], 6.59.

For the compound `Cc1ccc(Nc2ccc3c(n2)N(C2CCOCC2)[C@H](C)C(=O)N3C)cc1S(N)(=O)=O` [Example 63, 5-{[(3R)-1,3-dimethyl-2-oxo-4-(tetrahydro-2H-pyran-4-yl)-1,2,3,4-tetrahydropyrido[2,3-b]pyrazin-6-yl]amino}-2-methylbenzene-sulphonamide], the pIC50 was 6.80 in assay [1] and 6.79 in assay [2].

Consider `Cc1cccc(N2c3nc(Nc4cccc(S(=O)(=O)N5CCOCC5)c4)ccc3N(C)C(=O)C2C)c1` (stereo not shown) [Example 64, 1,3-dimethyl-4-(3-methylphenyl)-6-{[3-(morpholin-4-ylsulphonyl)phenyl]-amino}-3,4-dihydropyrido[2,3-b]pyrazin-2(1H)-one], for which the pIC50 in assay [1] is 6.71; in assay [2] it was 6.57.
